Laboratory results as given in the NIST ThermoML archive (doi:10.1021/je700260f).

Settings: 323.14 K, Liquid, Vibrating tube method

FC(C(F)(F)F)C(F)(F)F [1,1,1,2,3,3,3-heptafluoropropane]
Settings | mass density [kg/m3]
26341 kPa | 1449.9
26367 kPa | 1450.1
26395 kPa | 1450.2
26427 kPa | 1450.3
26451 kPa | 1450.5
26475 kPa | 1450.5
26513 kPa | 1450.7
26548 kPa | 1450.8
26575 kPa | 1450.8
26605 kPa | 1451
26630 kPa | 1451.2
26654 kPa | 1451.3
26689 kPa | 1451.4
26725 kPa | 1451.6
26749 kPa | 1451.6
26779 kPa | 1451.8
26810 kPa | 1451.9
26834 kPa | 1451.9
26866 kPa | 1452.2
26907 kPa | 1452.2
26931 kPa | 1452.3
26964 kPa | 1452.5
26991 kPa | 1452.7
27019 kPa | 1452.7
27049 kPa | 1452.9
27086 kPa | 1452.9
27111 kPa | 1453.1
27141 kPa | 1453.2
27170 kPa | 1453.4
27208 kPa | 1453.4
27239 kPa | 1453.6
27261 kPa | 1453.7
27301 kPa | 1453.9
27337 kPa | 1453.9
27364 kPa | 1454.2
27407 kPa | 1454.4
27446 kPa | 1454.5
29221 kPa | 1461.5
29254 kPa | 1461.6
29283 kPa | 1461.7
29320 kPa | 1461.9
29357 kPa | 1462
29386 kPa | 1462.2
29420 kPa | 1462.2
29450 kPa | 1462.4
29481 kPa | 1462.5
29512 kPa | 1462.7
29551 kPa | 1462.8
29581 kPa | 1462.9
29617 kPa | 1463.1
29647 kPa | 1463.3
29673 kPa | 1463.3
29712 kPa | 1463.4
30912 kPa | 1468
30939 kPa | 1468.2
30970 kPa | 1468.1
31016 kPa | 1468.3
31057 kPa | 1468.4
31085 kPa | 1468.6
31126 kPa | 1468.7
31158 kPa | 1468.9
31190 kPa | 1468.9
31227 kPa | 1469.2
31260 kPa | 1469.2
31289 kPa | 1469.4
31322 kPa | 1469.5
31350 kPa | 1469.7
31393 kPa | 1469.8
31427 kPa | 1469.8
31456 kPa | 1469.9
31496 kPa | 1470.1
31525 kPa | 1470.2
31560 kPa | 1470.3
31593 kPa | 1470.5
31631 kPa | 1470.6
31664 kPa | 1470.7
31692 kPa | 1470.8
31727 kPa | 1470.8
31759 kPa | 1471.1
31798 kPa | 1471.2
31833 kPa | 1471.3
31867 kPa | 1471.5
31900 kPa | 1471.6
31935 kPa | 1471.8
31970 kPa | 1471.9
32005 kPa | 1472.1
32035 kPa | 1472.1
32074 kPa | 1472.2
32106 kPa | 1472.4
32145 kPa | 1472.5
32183 kPa | 1472.7
32213 kPa | 1472.9
32256 kPa | 1472.9
32290 kPa | 1473
32334 kPa | 1473.2
32359 kPa | 1473.2
32392 kPa | 1473.5
32426 kPa | 1473.5
32453 kPa | 1473.6
32494 kPa | 1473.7
32530 kPa | 1473.9
32562 kPa | 1474.1
